We go through 17 compounds from US20230121952A1 (INFLAZOME LIMITED, priority 2020, published 2023).

Broadly, the IC50 is the concentration that inhibits the measured activity by half.

T1 sequence (Q96P20 whole entry): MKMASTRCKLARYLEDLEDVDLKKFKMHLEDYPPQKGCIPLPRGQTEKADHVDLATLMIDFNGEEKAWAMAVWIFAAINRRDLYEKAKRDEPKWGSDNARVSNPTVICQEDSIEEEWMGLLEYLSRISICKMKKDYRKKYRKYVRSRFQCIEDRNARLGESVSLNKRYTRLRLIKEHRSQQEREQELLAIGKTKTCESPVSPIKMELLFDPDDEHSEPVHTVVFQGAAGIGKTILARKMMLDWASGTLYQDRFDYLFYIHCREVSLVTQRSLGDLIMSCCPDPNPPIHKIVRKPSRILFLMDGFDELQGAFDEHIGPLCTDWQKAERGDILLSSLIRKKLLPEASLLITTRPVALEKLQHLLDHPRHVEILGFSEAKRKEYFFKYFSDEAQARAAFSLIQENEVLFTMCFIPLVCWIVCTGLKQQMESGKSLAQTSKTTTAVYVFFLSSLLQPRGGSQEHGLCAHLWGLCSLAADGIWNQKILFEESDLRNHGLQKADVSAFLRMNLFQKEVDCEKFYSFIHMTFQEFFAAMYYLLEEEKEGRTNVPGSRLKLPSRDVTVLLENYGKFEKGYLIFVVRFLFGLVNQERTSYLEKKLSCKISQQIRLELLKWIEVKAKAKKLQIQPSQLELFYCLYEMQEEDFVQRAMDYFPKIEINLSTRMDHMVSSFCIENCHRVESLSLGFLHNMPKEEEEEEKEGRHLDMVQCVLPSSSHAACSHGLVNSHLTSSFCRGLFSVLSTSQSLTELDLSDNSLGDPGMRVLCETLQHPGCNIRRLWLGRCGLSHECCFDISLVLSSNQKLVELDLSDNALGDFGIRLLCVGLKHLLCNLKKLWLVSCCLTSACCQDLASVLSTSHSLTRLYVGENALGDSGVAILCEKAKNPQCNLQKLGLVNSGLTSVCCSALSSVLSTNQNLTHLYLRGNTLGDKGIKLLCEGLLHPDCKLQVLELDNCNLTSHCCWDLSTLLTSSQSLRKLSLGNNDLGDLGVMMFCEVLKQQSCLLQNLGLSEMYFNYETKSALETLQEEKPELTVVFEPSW

One assay has as its target T1, NLRP3 (Homo sapiens, UniProt Q96P20). The experiment in a line: THP-1 cells pyroptosis assay. It is filed as cell-based. More on the design: Seed THP-1 cells (25,000 cells/well) containing 1.0 μg/ml LPS; host or cells: THP-1 cells, LPS-primed, nigericin-stimulated. The conditions noted are these: 1.0 μg/ml LPS, compound 3 hrs, nigericin 5 μM 1 hr, resazurin readout. How it is done:
THP-1 cells (ATCC #TIB-202) were grown in RPMI containing L-glutamine (Gibco #11835) supplemented with 1 mM sodium pyruvate (Sigma #S8636) and penicillin (100 units/ml)/streptomycin (0.1 mg/ml) (Sigma #P4333) in 10% Fetal Bovine Serum (FBS) (Sigma #F0804). The cells were routinely passaged and grown to confluency (˜10^6 cells/ml). On the day of the experiment, THP-1 cells were harvested and resuspended into RPMI medium (without FBS). The cells were then counted and viability (>90%) checked by Trypan blue (Sigma #T8154). Appropriate dilutions were made to give a concentration of 625,000 cells/ml. To this diluted cell solution was added LPS (Sigma #L4524) to give a […] Final Assay Concentration (FAC). 40 μl of the final preparation was aliquoted into each well of a 96-well plate. The plate thus prepared was used for compound screening.
The following method step-by-step assay was followed for compound screening. • 1. Seed THP-1 cells (25,000 cells/well) containing 1.0 μg/ml LPS in 40 μl of RPMI medium (without FBS) in 96-well, black walled, clear bottom cell culture plates coated with poly-D-lysine (VWR #734-0317) • 2. Add 5 μl compound (8 points half-log dilution, with 10 μM top dose) or vehicle (DMSO 0.1% FAC) to the appropriate wells • 3. Incubate for 3 hrs at 37° C., 5% CO2 • 4. Add 5 μl nigericin (Sigma #N7143) (FAC 5 μM) to all wells • 5. Incubate for 1 hr at 37° C., 5% CO2 • 6. At the end of the incubation period, spin plates at 300×g for 3 mins and remove supernatant • 7. Then add 50 μl of resazurin (Sigma #R7017) (FAC 100 μM resazurin in RPMI medium without FBS) and incubate plates for a further 1-2 hrs at 37° C. and 5% CO2 • 8. Plates were read in an Envision reader at Ex 560 nm and Em 590 nm • 9. IC50 data is fitted to a non-linear regression equation (log inhibitor vs response-variable slope 4-parameters) 96-well Plate Map
A general note: Alamar Blue is a resazurin reagent that responds to reducing activity.
`CN1CCCOc2cc(ccn2)-c2ccc3c(c2Nc2nnc([nH]2)S(=O)(=O)N2CCC1CC2)CCC3` [Example 1, 26-methyl-22-oxa-2λ^6-thia-1,4,5,7,20,26,33-heptazahexacyclo-[25.2.2.1^3,6.1^17,21.0^8,16.0^9,13]tritriaconta-3,6(33),8,13,15,17,19,21(32)-octaene 2,2-dioxide] returned an IC50 not above 5000 nM.
In turn, `O=S1(=O)c2nnc([nH]2)Nc2c(ccc3c2CCC3)-c2ccnc(c2)OCCCCN2CCC3(C2)CN1C3` [Example 19, 27-oxa-16λ^6-thia-11,13,14,17,22,29,35-heptaazaheptacyclo-[26.3.1.1^12,15.1^17,19.1^19,22.0^2,10.0^5,9]pentatriaconta-1(31),2,4,9,12,14,28(32),29-octaene-16,16-dioxide] came in with a half-inhibitory concentration (IC50) not above 500 nM.
The same measure, in the same setting: the value for `CN(C)CC12CCCCOc3cc(ccn3)-c3ccc4c(c3Nc3nnc([nH]3)S(=O)(=O)N(CC1)C2)CCC4` (centres unmarked) [Example 21, 20-[(dimethylamino)methyl]-25-oxa-16λ^6-thia-11,13,14,17,27,32-hexaazahexacyclo[24.3.1.1^12,15.1^17,20.0^2,10.0^5,9]dotriaconta-1(29),2,4,9,12,14,26(30),27-octaene-16,16-dioxide] was not above 1000 nM.
Compound `CN1CCOc2cc(ccn2)-c2ccc3c(c2Nc2nnc([nH]2)S(=O)(=O)N2CC(C1)C2)CCC3` [Example 11, 21-methyl-24-oxa-16λ^6-thia-11,13,14,17,21,26,31-heptaazahexacyclo-[23.3.1.1^12,15.1^17,19.0^2,10.0^5,9]hentriaconta-1(28),2,4,9,12,14,25(29),26-octaene-16,16-dioxide] registered an IC50 not above 100 nM.
`CN1CCOc2cc(ccn2)-c2ccc3c(c2Nc2nnc([nH]2)S(=O)(=O)N2CCC1CC2)CCC3` [Example 9, 25-methyl-22-oxa-2λ^6-thia-1,4,5,7,20,25,32-heptaazahexacyclo-[24.2.2.1^3,6.1^17,21.0^8,16.0^9,13]dotriaconta-3,5,8,13,15,17,19,21(31)-octaene-2,2-dioxide]: the IC50 is not above 500 nM.
Still for that read-out and setting: the value for `O=S1(=O)c2nnc([nH]2)Nc2c(ccc3c2CCC3)-c2ccnc(c2)OCCCN2CCC23CCN1CC3` [Example 15, 8-oxa-28λ^6-thia-4,10,23,25,26,29,34-heptaazaheptacyclo-[27.2.2.1^9,13.1^24,27.0^1,4.0^14,22.0^17,21]pentatriaconta-9(35),10,12,14,16,21,24,26-octaene-28,28-dioxide] was not above 100 nM; that for `CC(C)c1cc(F)cc2c1Nc1nnc([nH]1)S(=O)(=O)N1CC3(CCN(CCCOc4cc-2ccn4)C3)C1` [Example 24, 4-fluoro-6-(propan-2-yl)-23-oxa-13λ^6-thia-8,10,11,14,19,25,31-heptaazahexacyclo[22.3.1.1^9,12.1^14,16.1^16,19.0^2,7]hentriaconta-1(27),2(7),3,5,9,11,24(28),25-octaene-13,13-dioxide] was not above 100 nM.
`O=S1(=O)c2nnc([nH]2)Nc2c(ccc3c2CCC3)-c2ccnc(c2)OCC2CN(C2)C2CCN1CC2` [Example 18, 6-oxa-26λ^6-thia-2,8,21,23,24,27,32-heptaazaheptacyclo-[25.2.2.1^2,4.1^7,11.1^22,25.0^12,20.1^15,19]tetratriaconta-7(33),8,10,12,14,19,22,24-octaene-26,26-dioxide] had an IC50 not above 5000 nM.
On the same count and under the same terms, to `O=S1(=O)c2nnc([nH]2)Nc2c(ccc3c2CCC3)-c2ccnc(c2)OCCCN2CCOCC23CCN1CC3` [Example 20] belongs not above 500 nM; to `CN1CCCOc2cc(ccn2)-c2ccc3c(c2Nc2nnc([nH]2)S(=O)(=O)N2CC[C@H]1C2)CCC3` [Example 17, (20S)-21-methyl-25-oxa-16λ^6-thia-11,13,14,17,21,27,32-heptaazahexacyclo[24.3.1.1^12,15.1^17,20.0^2,10.0^0,9]dotriaconta-1(29),2,4,9,12,14,26(30),27-octaene-16,16-dioxide], not above 500 nM.
`O=S1(=O)c2nnc([nH]2)Nc2c(ccc3c2CCC3)-c2ccnc(c2)OCCCN2C[C@@H]3C[C@H]2CN31` [Example 22, (19S,21S)-27-oxa-16λ^6-thia-11,13,14,17,23,29,33-heptaazaheptacyclo-[26.3.1.1^12,15.0^2,10.0^5,9.0^17,21.0^19,23]tritriaconta-1(31),2,4,9,12,14,28(32),29-octaene-16,16-dioxide]: the half-inhibitory concentration (IC50) is not above 5000 nM.
In turn, `CN1CCCCOc2cc(ccn2)-c2ccc3c(c2Nc2nnc([nH]2)S(=O)(=O)N2CCC1CC2)CCC3` [Example 13, 27-methyl-22-oxa-2λ^6-thia-1,4,5,7,20,27,34-heptaazahexacyclo-[26.2.2.1^3,6.1^17,21.0^8,16.0^9,13]tetratriaconta-3,5,8,13,15,17,19,21(33)-octaene-2,2-dioxide] gave an IC50 not above 1000 nM.
On the same count and under the same terms, the value for `CC1(C)COc2cc(ccn2)-c2ccc3c(c2Nc2nnc([nH]2)S(=O)(=O)c2ccn1n2)CCC3` [Example 6, 21,21-dimethyl-23-oxa-16λ^6-thia-11,13,14,20,25,29,30-heptazahexacyclo-[22.3.1.1^12,15.1^17,20.0^2,10.0^5,9]triaconta-1(27),2,4,9,12(30),14,17(29),18,24(28),25-decaene 16,16-dioxide] was not above 5000 nM; that for `CC1(C)CCOc2cc(ccn2)-c2ccc3c(c2Nc2nnc([nH]2)S(=O)(=O)c2ccn1n2)CCC3` [Example 7, 21,21-dimethyl-24-oxa-16λ^6-thia-11,13,14,20,26,30,31-heptazahexacyclo-[23.3.1.1^12,15.1^17,20.0^2,10.0^5,9]hentriaconta-1(28),2,4,9,12,14,17(30),18,25(29),26-decaene 16,16-dioxide] was not above 10000 nM; that for `CN(C)CC12CCCCOc3cc(ccn3)-c3ccc4c(c3Nc3nnc([nH]3)S(=O)(=O)N(C1)C2)CCC4` [Example 16, 19-[(dimethylamino)methyl]-24-oxa-16λ^6-thia-11,13,14,17,26,31-hexaazahexacyclo[23.3.1.1^12,15.1^17,19.0^2,10.0^5,9]hentriaconta-1(28),2,4,9,12,14,25(29),26-octaene-16,16-dioxide] was not above 1000 nM.
Same read-out and setting: the value for `CN1CCOc2cc(ccn2)-c2ccc3c(c2Nc2nnc([nH]2)S(=O)(=O)N2CC[C@H](C1)C2)CCC3` [Example 14, (20R)-22-methyl-25-oxa-16λ^6-thia-11,13,14,17,22,27,32-heptaazahexacyclo[24.3.1.1^12,15.1^17,20.0^2,10.0^5,9]dotriaconta-1(29),2,4,9,12,14,26(30),27-octaene-16,16-dioxide] was not above 500 nM; that for `O=S1(=O)c2nnc([nH]2)Oc2c(ccc3c2CCC3)-c2ccnc(c2)OCCCN2CCC3(C2)CN1C3` [Example 23, 11,26-dioxa-16λ^6-thia-13,14,17,22,28,34-hexaazaheptacyclo-[25.3.1.1^12,15.1^17,19.1^19,22.0^2,10.0^5,9]tetratriaconta-1(30),2,4,9,12,14,27(31),28-octaene-16,16-dioxide] was not above 5000 nM.

A further assay concerns the target T1, NLRP3. The experiment in a line: Human whole blood IL-1β release assay. Format: cell-based. More on the design: Human whole blood in Li-heparin tubes was obtained from healthy donors; from tissue; host or cells: human whole blood from healthy volunteer donors, LPS-primed, nigericin-stimulated. The conditions noted are these: 1 μg/ml LPS, compound 3 hrs, nigericin 10 μM 1 hr, IL-1β in supernatant (AlphaLisa), read-out: HWB IC50. How it is done: For systemic delivery, the ability to inhibit NLRP3 when the compounds are present within the bloodstream is of great importance. For this reason, the NLRP3 inhibitory activity of a number of compounds in human whole blood was investigated in accordance with the following protocol.
Human whole blood in Li-heparin tubes was obtained from healthy donors from a volunteer donor panel. • 1. Plate out 80 μl of whole blood containing 1 μg/ml of LPS in 96-well, clear bottom cell culture plate (Corning #3585) • 2. Add 10 μl compound (8 points half-log dilution with 10 μM top dose) or vehicle (DMSO 0.1% FAC) to the appropriate wells • 3. Incubate for 3 hrs at 37° C., 5% CO2 • 4. Add 10 μl nigericin (Sigma #N7143) (10 μM FAC) to all wells • 5. Incubate for 1 hr at 37° C., 5% CO2 • 6. At the end of the incubation period, spin plates at 300×g for 5 mins to pellet cells and remove 20 μl of supernatant and add to 96-well v-bottom plates for IL-1β analysis (note: these plates containing the supernatants can be stored at −80° C. to be analysed at a later date) • 7. IL-1β was measured according to the manufacturer protocol (Perkin Elmer-AlphaLisa IL-1 Kit AL220F-5000) • 8. IC50 data is fitted to a non-linear regression equation (log inhibitor vs response-variable slope 4-parameters)
On the technique in general: Bead proximity is the source of the signal in Alpha formats.
With `CN1CCCOc2cc(ccn2)-c2ccc3c(c2Nc2nnc([nH]2)S(=O)(=O)N2CCC1CC2)CCC3` [Example 1, 26-methyl-22-oxa-2λ^6-thia-1,4,5,7,20,26,33-heptazahexacyclo-[25.2.2.1^3,6.1^17,21.0^8,16.0^9,13]tritriaconta-3,6(33),8,13,15,17,19,21(32)-octaene 2,2-dioxide], the 50% inhibitory concentration (IC50) was not above 5000 nM.
Same read-out and setting: to `CN1CCOc2cc(ccn2)-c2ccc3c(c2Nc2nnc([nH]2)S(=O)(=O)N2CC(C1)C2)CCC3` [Example 11, 21-methyl-24-oxa-16λ^6-thia-11,13,14,17,21,26,31-heptaazahexacyclo-[23.3.1.1^12,15.1^17,19.0^2,10.0^5,9]hentriaconta-1(28),2,4,9,12,14,25(29),26-octaene-16,16-dioxide] belongs not above 500 nM; to `CN1CCOc2cc(ccn2)-c2ccc3c(c2Nc2nnc([nH]2)S(=O)(=O)N2CCC1CC2)CCC3` [Example 9, 25-methyl-22-oxa-2λ^6-thia-1,4,5,7,20,25,32-heptaazahexacyclo-[24.2.2.1^3,6.1^17,21.0^8,16.0^9,13]dotriaconta-3,5,8,13,15,17,19,21(31)-octaene-2,2-dioxide], not above 500 nM.
